Patent US5760036A, “Aminediol protease inhibitors” (E. R. Squibb & Sons, Inc., priority 1995, dated 1998)
pIC50: −log10 of the molar value. Where a name gives a salt, the structure may show the parent alone. Read-outs that look alike come from different tables or passages of the source.

What was measured:
[1] = tested on: RF strain of HIV (CEM-SS cells); experiment: Cell Culture Anti-HIV Activity (cell viability, formazan); assay type: cell-based; settings: Human immunodeficiency virus 1, CEM-SS, 144 h, CEM-SS cells, RF strain of HIV, multiplicity of infection 0.04, 6 days at 37° C., 450 nm; read-out: HIV (CEM Cells) IC50
Method: The antiviral activity of aminediol inhibitors of the present invention was evaluated by a microculture method which determines the increase in cell viability of an infected culture when a drug is added. The assay depends on the metabolic reduction of tetrazolium reagent by viable cells to yield a soluble colored formazan product.
The assay was performed as follows: suspensions of CEM-SS cells (5000/well) were infected with the RF strain of HIV at a multiplicity of infection at 0.04 in a 96-well plate. The compounds of the present invention listed in the following Table 1, serially diluted in half-log fashion, were added to the infected and uninfected control cells. Untreated (infected and uninfected) cells were included as controls. Following incubation for 6 days at 37° C., viable cells in each well were quantitated by the visible light absorbance at 450 nm.
The IC50 was calculated as the concentration of drug that increased the formazan production in virally infected cells to 50% of that produced by uninfected cells in the absence of drug.

HIV protease = biological target: T1, HIV protease (Human immunodeficiency virus type 1 group M subtype B, UniProt P04585); experiment: HIV Protease Assay; assay type: biochemical
T1 construct: and purified protease
In short: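 At a single final concentration of 10 μM (4% DMSO), inhibitors were added to a 30-minute, 37° C reaction of purified enzyme with 450 μM H2N-Val-Ser-Gln-Asn-(β-naphthyl-alanine)-Pro-Val-Ile-OH at pH 5.5 (sodium acetate, BSA). Hydrolysis was quantified by reverse-phase HPLC with 220 nm detection after acid quench.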

[2] = pH 5.5, 10 μM inhibitor, 4% DMSO, 450 μM substrate, pH 5.5, 30 minutes at 37° C., RP-HPLC, read-out: HIV Protease % Inhibition at 10 μM
[3] = pH 5.5, read-out: HIV Protease % Inhibition at 10 μM

inhibition at 10 µM (HIV protease; [2])	inhibition at 10 µM (HIV protease; [3])	SMILES	pIC50 [1]
92%	–	CC(C)(C)NC(=S)N[C@@H](Cc1ccccc1)[C@H](O)CNC[C@@H](O)[C@H](Cc1ccccc1)NC(=O)OC(C)(C)C [Compound 137, [1S-[1R*,2S*(2S*,3R*)]]-[3-[[3-[[[(1,1-Dimethylethyl)amino]thioxomethyl]amino]-2-hydroxy-4-phenylbutyl]amino]-2-hydroxy-1-(phenylmethyl))propyl]carbamic acid, 1,1-dimethylethyl ester]	< 5.59
86%	–	CC(C)[C@H](NC(=O)OC[C@H](O)CO)C(=O)N[C@@H](Cc1ccccc1)[C@H](O)CNC[C@@H](O)[C@H](Cc1ccccc1)NC(=O)OC(C)(C)C (relative stereo) [Compound 219, [[1R*,2S*(2S*,3R*)],N^2-(S*)]-N^2-[(2,3-Dihydroxypropoxy)carbonyl]-N-[3-[[3-[[(1,1-dimethylethoxy)carbonyl]-amino]-2-hydroxy-4-phenylbutyl]amino]-2-hydroxy-1-(phenylmethyl)propyl]-L-valinamide]	4.46
100%	–	CC(C)[C@H](NC(=O)[C@@H](N)Cc1ccccc1)C(=O)N[C@@H](Cc1ccccc1)[C@H](O)CNC[C@@H](O)[C@H](Cc1ccccc1)NC(=O)[C@@H](NC(=O)[C@@H](N)Cc1ccccc1)C(C)C [Compound 92, [S-(1R*,2S*)]-N,N'-[Iminobis[2-hydroxy-1-(phenylmethyl)-3,1-propanediyl]bis[N^2-(L-phenylalanyl)-L-valinamide[,trihydrochloride]	4.41
–	98%	CC(C)(C)OC(=O)N[C@@H](Cc1ccccc1)[C@H](O)CNC[C@@H](O)[C@H](Cc1ccccc1)NC(=O)[C@](C)(O)c1ccccc1 [Compound 353, [1S-[1R*,2S*[2S*,3R*(S*)]]]-[3-[[3-[(2-Hydroxy-1-oxo-2-phenylpropyl)amino]-2-hydroxy-4-phenylbutyl]amino]-2-hydroxy-l-(phenylmethyl)propyl]carbamic acid, 1,1-dimethylethyl ester]	5.96
84%	–	CC(C)(C)OC(=O)N[C@@H](Cc1ccccc1)[C@H](O)CNC[C@@H](O)[C@H](Cc1ccc(OCc2ccccc2)cc1)NC(=O)OCc1ccccc1 [Compound 17, [1S-[1R*,2S*(2S*,3R*)]]-[3-[[3-[[(1,1-Dimethylethoxy)carbonyl]amino]2-hydroxy-4-phenylbutyl]amino]-2-hydroxy-1-[[4-(phenylmethoxy)phenyl]methyl]propyl]carbamic acid, phenylmethyl ester]	< 5.82
99%	–	C[C@H](O)C(C)(C)OC(=O)N[C@@H](Cc1ccccc1)[C@H](O)CNC[C@@H](O)[C@H](Cc1ccccc1)NC(=O)OC(C)(C)C [Compound 232, [1S-(1R*,2S*),(R*)]-[Iminobis[2-hydroxy-1-(phenylmethyl)-3,1-propanediyl]]biscarbamic acid, 1,1-dimethylethyl 2-hydroxy-1,1-dimethylpropyl ester]	7.30
87%	–	CC(C)[C@H](NC(=O)OCc1ccccc1)C(=O)N(C)[C@@H](Cc1ccccc1)[C@H](O)CNC[C@@H](O)[C@H](Cc1ccccc1)NC(=O)OC(C)(C)C [Compound 134, [S-[1R*,2S*(2S*,3R*)]]-N-[3-[[3-[[(1,1-Dimethylethoxy)carbonyl]amino]-2-hydroxy-4-phenylbutyl]amino]-2-hydroxy-1-(phenylmethyl)-propyl]-N-methyl-N^2-[(phenylmethoxy)carbonyl]-L-valinamide]	< 5.30
97%	–	CC(C)(C)OC(=O)N[C@@H](C/C=C/c1ccc(O)cc1)[C@H](O)CNC[C@@H](O)[C@H](Cc1ccccc1)NC(=O)OC(C)(C)C [Compound 235, [1S-[1R*,2S*[2S*,3R*(E)]]]-[3-[[3-[[(1,1-Dimethylethoxy)carbonyl]amino]-2-hydroxy-6-(4-hydroxyphenyl)-5-hexenyl]amino]-2-hydroxy-1-(phenylmethyl)propyl]carbamic acid, 1,1-dimethylethyl ester]	6.46
36%	–	O=C(N[C@@H](Cc1ccccc1)[C@H](O)CNC[C@@H](O)[C@H](Cc1ccccc1)NC(=O)c1ccccc1)c1ccccc1 [Compound 36, [S-(1R*,2S*)]-N,N'-[Iminobis[2-hydroxy-1-(phenylmethyl)-3,1-propanediyl]]bisbenzamide]	< 5.10
100%	–	CC(C)(C)OC(=O)N[C@@H](Cc1ccccc1)[C@H](O)CNC[C@@H](O)[C@H](Cc1ccccc1)NC(=O)[C@@H](NC=O)C(C)(C)C [Compound 234, [1S-[1R*,2S*(2S*,3R*),(R*)]]-[3-[[3-[[3,3-Dimethyl-2-(formylamino)-1-oxobutyl]amino]-2-hydroxy-4-phenylbutyl]amino]-2-hydroxy-1-(phenylmethyl)propyl]carbamic acid, 1,1-dimethylethyl ester]	7.10
95%	–	C[C@@H](O)C(C)(C)OC(=O)N[C@@H](Cc1ccccc1)[C@H](O)CNC[C@@H](O)[C@H](Cc1ccccc1)NC(=O)OC(C)(C)C [Compound 275, [1S-[1R*,2S*),(S*)]-[Iminobis [2-hydroxy-1-(phenylmethyl)-3,1-propanediyl]]biscarbamic acid, 1,1-dimethylethyl 2-hydroxy-1,1-dimethylpropyl ester]	6.35
58%	–	O=C(N[C@@H](Cc1ccccc1)[C@H](O)CNC[C@@H](O)[C@H](Cc1ccccc1)NC(=O)OCc1ccccc1)OCc1ccccc1 [Compound 44, [R-(R*,S*)]-Iminobis[2-hydroxy-1-(phenylmethyl)-3,1-propandiyl]]biscarbamic acid, bis(phenylmethyl) ester]	< 5.30
–	100%	CC(C)(C)OC(=O)N[C@@H](Cc1ccccc1)[C@H](O)CNC[C@@H](O)[C@H](Cc1ccccc1)NC(=O)[C@](C)(O)C(C)(C)C [Compound 262, [1S-[1R*,2S*[2S*,3R*(S*)]]]-[3-[[3-[(2-Hydroxy-2,3,3-trimethyl-1-oxobutyl)amino]-2-hydroxy-4-phenylbutyl]amino]-2-hydroxy-1-(phenylmethyl)propyl]carbamic acid, 1.1-dimethylethyl ester]	7.52
99%	–	CC(C)[C@H](NC(=O)CCC(=O)Nc1ccccc1)C(=O)N[C@@H](Cc1ccccc1)[C@H](O)CNC[C@@H](O)[C@H](Cc1ccccc1)NC(=O)OC(C)(C)C (relative stereo) [Compound 204, [1R*,2S*(2S*,3R*)]-N-[3-[[3-[[(1,1-Dimethylethoxy)carbonyl]amino]-2-hydroxy-4-phenylbutyl]amino]-2-hydroxy-1-(phenylmethyl)propyl]-N^2-[[1,4-dioxo-4-(phenylamino)butyl]-L-valinamide]	6.77
97%	–	CC(C)(C)NC(=O)N[C@@H](Cc1ccccc1)[C@H](O)CNC[C@@H](O)[C@H](Cc1ccccc1)NC(=O)OC(C)(C)C [Compound 50, [1S-[1R*,2S*(2S*,3R*)]]-[3-[[3-[[[(1,1-Dimethylethyl)amino]carbonyl]amino]-2-hydroxy-4-phenylbutyl]amino]-2-hydroxy-1-(phenylmethyl)propyl]carbamic acid, 1,1-dimethylethyl ester]	6.66
